Publication PMC10046961, “High-Throughput Screening Assay for Detecting Drug-Induced Changes in Synchronized Neuronal Oscillations and Potential Seizure Risk Based on Ca^2+ Fluorescence Measurements in Human Induced Pluripotent Stem Cell (hiPSC)-Derived Neuronal 2D and 3D Cultures” (Cells, 2023)
Where two headings read alike, the source gives them in different places.

Assays:
[1] = ref PharmaPendium, cited from earlier work
[2] = tested on: hiPSC-derived neurons co-cultured with human primary astrocytes in 3D; assay: Ca2+ transient oscillation assay (FDSS), 3D spheroids; type: cell-based; conditions: 60 min
How it was run: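 Fura-2 fluorescence was read twice for 20 min each: a baseline 10 min after 0.04% DMSO, and again 60 min after compound addition at nominal final concentration. The 3D co-cultures (1:1 hiPSC neurons from a donor and human astrocytes, 8000 each) matured 5 weeks in BrainPhys medium after a 1-week differentiation.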

[3] = tested on: hiPSC-derived neurons co-cultured with human primary astrocytes in 2D; assay: Ca2+ transient oscillation assay (FDSS), 2D co-culture; type: cell-based; conditions: for activation at 0.37 µM / activation at 1.11 µM / activation at 3.33 µM / activation at 10 µM: Homo sapiens, 1 h, 60 min
How it was run: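 hiPSC-derived excitatory neurons (CW50065, Quick-Neuron EX-SeV) co-cultured with human primary astrocytes at 4:1 (10,000:2500 cells per well). Cal-520-loaded cells in HBSS with 2 mM CaCl2 and 10 mM HEPES were pretreated with 0.04% DMSO.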

[4] = read-out: Area under the curve - 2D Mean
[5] = read-out: Peak amplitude - 2D Mean
[6] = read-out: Peak-to-peak interval - 2D Mean

CC[C@@H]1C(=O)OC[C@@H]1Cc1cncn1C [Pilocarpine]
Free Cmax ([1]; Table 1, peak plasma concentration in men, free therapeutic Cmax): 0.03 to 0.55 µM | Free Cmax ([1]; Table 2, highest plasma concentration in humans after the therapeutic dose): 0.03 to 0.55 µM | Area under the curve - 3D Mean ([2]; 0.37 µM): 141.5 % change from baseline | Peak Number—3D Mean ([2]; 0.37 µM): 16.7 % change from baseline | Peak amplitude - 3D Mean ([2]; 0.37 µM): 115.6 % change from baseline | Peak width - 3D Mean ([2]; 0.37 µM): 6.3 % change from baseline | Peak-to-peak interval - 3D Mean ([2]; 0.37 µM): −10.1 % change from baseline | Area under the curve - 3D Mean ([2]; 1.11 µM): 173.5 % change from baseline | Peak Number—3D Mean ([2]; 1.11 µM): 23.9 % change from baseline | Peak amplitude - 3D Mean ([2]; 1.11 µM): 145.8 % change from baseline | Peak width - 3D Mean ([2]; 1.11 µM): 6.7 % change from baseline | Peak-to-peak interval - 3D Mean ([2]; 1.11 µM): −10.0 % change from baseline | Area under the curve - 3D Mean ([2]; 3.33 µM): 168.7 % change from baseline | Peak Number—3D Mean ([2]; 3.33 µM): 12.9 % change from baseline | Peak amplitude - 3D Mean ([2]; 3.33 µM): 135.3 % change from baseline | Peak width - 3D Mean ([2]; 3.33 µM): 10.2 % change from baseline | Peak-to-peak interval - 3D Mean ([2]; 3.33 µM): −3.3 % change from baseline | Area under the curve - 3D Mean ([2]; 10 µM): 145.2 % change from baseline | Peak Number—3D Mean ([2]; 10 µM): 23.1 % change from baseline | Peak amplitude - 3D Mean ([2]; 10 µM): 122.5 % change from baseline | Peak width - 3D Mean ([2]; 10 µM): 7.0 % change from baseline | Peak-to-peak interval - 3D Mean ([2]; 10 µM): −12.6 % change from baseline | effect on peak number / Ca2+ neuronal oscillations, in words ([3]; 2D format): significantly increased peak number | activation at 0.37 µM [3, 4]: 26.7% | activation at 0.37 µM ([3]; read-out: Peak Number—2D Mean): 11.5% | activation at 0.37 µM [3, 5]: 9.3% | activation at 0.37 µM ([3]; read-out: Peak width - 2D Mean): 19.2% | activation at 0.37 µM [3, 6]: 1.3% | activation at 1.11 µM [3, 4]: 38.8% | activation at 1.11 µM ([3]; read-out: Peak Number—2D Mean): 8.3% | activation at 1.11 µM [3, 5]: 8% | activation at 1.11 µM ([3]; read-out: Peak width - 2D Mean): 35.7% | activation at 1.11 µM [3, 6]: 5.8% | activation at 3.33 µM [3, 4]: 26.7% | activation at 3.33 µM ([3]; read-out: Peak Number—2D Mean): 34.3% | activation at 3.33 µM [3, 5]: 5.8% | activation at 3.33 µM ([3]; read-out: Peak width - 2D Mean): 23.2% | activation at 3.33 µM [3, 6]: -9.2% | activation at 10 µM [3, 4]: 22.8% | activation at 10 µM ([3]; read-out: Peak Number—2D Mean): -19.2% | activation at 10 µM [3, 5]: 3.8% | activation at 10 µM ([3]; read-out: Peak width - 2D Mean): 23% | activation at 10 µM [3, 6]: 29.8%
